GI50 and TGI data for 11 compounds are collected here from PubChem BioAssay (NCI).

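Compound exposure: 48 hours, 5 concentrations, 96-well plates. The concentration for 50% growth inhibition is given as GI50. TGI is the concentration that stops growth completely.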 Bounds are passed on as bounds.

Test systems include SF-268 CNS; HL-60(TB) leukemia; NCI-H460 lung; MOLT-4 leukemia; OVCAR-3 ovarian; UO-31 renal; SK-MEL-2 melanoma; EKVX NSCLC; OVCAR-5 ovarian.
Common to all, as to assay: NCI anticancer screen, dose series, 48 h

For `O=c1[nH]c2ccccc2cc1-c1nnc(Cc2ccccc2)o1`, the GI50 is 10.7 µM in the experiment on SF-268 CNS; 3.43 µM in the experiment on HL-60(TB) leukemia; 6.63 µM with NCI-H460 lung; 2.67 µM with MOLT-4 leukemia; 3.25 µM in the experiment on OVCAR-3 ovarian; 1.72 µM with UO-31 renal. For the same compound, the TGI with SF-268 CNS came out at 42 µM; in the experiment on HL-60(TB) leukemia it was 21.2 µM; in the experiment on NCI-H460 lung it was 28.3 µM; in the experiment with MOLT-4 leukemia, 9.22 µM; in the experiment with OVCAR-3 ovarian it was 11 µM; with UO-31 renal, 3.72 µM.
As to `CN(C)C1C(=O)C(C(N)=O)=C(O)C2(O)C(=O)C3=C(O)c4c(O)cccc4C(C)(O)C3CC12.[Cl][Sb]([Cl])[Cl]` (stereo not given), the GI50 with SK-MEL-2 melanoma is 2.99 µM; with HL-60(TB) leukemia it was 4.01 µM; in the experiment with NCI-H460 lung, 3.27 µM; in the experiment with EKVX NSCLC, 2.96 µM; in the experiment with MOLT-4 leukemia, 3.91 µM; in the experiment with OVCAR-3 ovarian, 3.62 µM. Also, the values for the GI50 in the experiment with OVCAR-5 ovarian and with UO-31 renal were 7.29 µM and 2.62 µM, respectively. The TGI with SK-MEL-2 melanoma worked out at 8.04 µM; with HL-60(TB) leukemia it was 9.9 µM; with NCI-H460 lung, 12.3 µM; in the experiment with EKVX NSCLC it was 8.01 µM; in the experiment with MOLT-4 leukemia, 11 µM; with OVCAR-3 ovarian, 12.4 µM. Moreover, the TGI in the experiment on OVCAR-5 ovarian was determined as 26.1 µM; in the experiment with UO-31 renal, 16.1 µM.
For the compound `COc1cc2c(c3c1c(=O)c1ccccc1n3C)C=C([N+](=O)[O-])C(C)(C)O2`, the TGI was > 100 µM with SF-268 CNS; > 100 µM with HL-60(TB) leukemia; 0.108 µM with NCI-H460 lung; > 100 µM in the experiment with EKVX NSCLC; > 100 µM with MOLT-4 leukemia; > 100 µM in the experiment on OVCAR-3 ovarian. Besides, the TGI with OVCAR-5 ovarian and in the experiment with UO-31 renal was > 100 µM in each case.
Regarding `O=C1c2cccc3c(N4CCOCC4)ccc(c23)C(=O)N1CCN1CCN(CCCCCN2CCN(CCN3C(=O)c4cccc5c(N6CCOCC6)ccc(c45)C3=O)CC2)CC1`, the GI50 with SF-268 CNS was > 100 µM; in the experiment on HL-60(TB) leukemia it was 33.7 µM; in the experiment with NCI-H460 lung it was > 100 µM; in the experiment on EKVX NSCLC, > 100 µM; in the experiment on OVCAR-3 ovarian, 84.5 µM; with OVCAR-5 ovarian, > 100 µM. Further, the TGI in the experiment on SF-268 CNS, with HL-60(TB) leukemia, in the experiment on NCI-H460 lung, with EKVX NSCLC, with OVCAR-3 ovarian and in the experiment on OVCAR-5 ovarian was > 100 µM each time.
With `O=C(Nc1ccccc1C(=O)NC(=O)c1ccccc1NC(=O)c1ccccc1)c1ccccc1`, the TGI was 3.93 µM in the experiment on SK-MEL-2 melanoma; 22.2 µM with SF-268 CNS; 28.1 µM in the experiment on NCI-H460 lung; 28.3 µM in the experiment on EKVX NSCLC; 13.4 µM in the experiment with OVCAR-3 ovarian; 13.5 µM in the experiment with OVCAR-5 ovarian.
For the compound `O=C(Nc1nc2ccc(S(=O)(=O)Nc3ccc(C4(C(F)(F)F)CC4)cc3)cc2[nH]1)c1cnccn1`, the GI50 in the experiment on SK-MEL-2 melanoma was 3.03 µM; with SF-268 CNS, 4.21 µM; in the experiment on NCI-H460 lung, 1.07 µM; in the experiment on EKVX NSCLC, 3.04 µM; in the experiment on OVCAR-3 ovarian, 0.417 µM; in the experiment on OVCAR-5 ovarian, 5.52 µM. The GI50 with UO-31 renal is 3.02 µM. Further, the TGI is 18.5 µM in the experiment with SK-MEL-2 melanoma; 20.6 µM with SF-268 CNS; 12.2 µM in the experiment on NCI-H460 lung; 15 µM in the experiment on EKVX NSCLC; 10.1 µM in the experiment with OVCAR-3 ovarian; 19.5 µM in the experiment with OVCAR-5 ovarian. Also, the TGI with UO-31 renal amounted to 13.9 µM.
With `CCOC(=O)c1cn(C)c2c(OC)c3ccccc3c(OC)c2c1=O`, the GI50 in the experiment on SF-268 CNS was 20.1 µM; with HL-60(TB) leukemia it was 35.9 µM; in the experiment on NCI-H460 lung it was 32.1 µM; in the experiment on MOLT-4 leukemia, 18.9 µM; in the experiment with OVCAR-3 ovarian it was 5.62 µM; with OVCAR-5 ovarian, 30.9 µM. For the same compound, the GI50 in the experiment on UO-31 renal was > 100 µM. Besides, the TGI with SF-268 CNS is 74.9 µM; with HL-60(TB) leukemia it was > 100 µM; in the experiment with NCI-H460 lung it was > 100 µM; with MOLT-4 leukemia it was 51.7 µM; in the experiment with OVCAR-3 ovarian, 25.7 µM; in the experiment with OVCAR-5 ovarian, > 100 µM. Further, the TGI in the experiment with UO-31 renal was > 100 µM.
On to `O=c1[nH]c(=S)[nH]c(O)c1/C=C1\C=Nc2ccccc21`, for which the GI50 was 19.5 µM with SK-MEL-2 melanoma; 2.52 µM with SF-268 CNS; 2.65 µM in the experiment with HL-60(TB) leukemia; 4.07 µM in the experiment with NCI-H460 lung; 7.14 µM in the experiment with EKVX NSCLC; 2.51 µM in the experiment with MOLT-4 leukemia. The GI50 with OVCAR-3 ovarian was 1.44 µM; in the experiment on OVCAR-5 ovarian it was 25.7 µM. Besides, the TGI in the experiment with SK-MEL-2 melanoma turned out to be 59 µM; in the experiment on SF-268 CNS it was 7.91 µM; in the experiment with HL-60(TB) leukemia it was 8.88 µM; with NCI-H460 lung, 18.5 µM; in the experiment with EKVX NSCLC, 32.8 µM; in the experiment on MOLT-4 leukemia, 8.02 µM. The TGI with OVCAR-3 ovarian is 3.13 µM; with OVCAR-5 ovarian it was > 100 µM.
Regarding `Cc1ccccc1Nc1cc(O)c2c(=O)cc(-c3ccccc3)oc2c1`, the GI50 was 2.44 µM in the experiment on SK-MEL-2 melanoma; 4.49 µM in the experiment on SF-268 CNS; 2.16 µM with HL-60(TB) leukemia; 2.89 µM with NCI-H460 lung; 3.35 µM in the experiment on EKVX NSCLC; 2.66 µM in the experiment on MOLT-4 leukemia. The results for the GI50 in the experiment with OVCAR-3 ovarian and in the experiment on OVCAR-5 ovarian were 1.72 µM and > 100 µM, respectively. In addition, the TGI in the experiment on SK-MEL-2 melanoma, in the experiment with SF-268 CNS, in the experiment with HL-60(TB) leukemia, in the experiment with NCI-H460 lung, in the experiment with EKVX NSCLC and with MOLT-4 leukemia was > 100 µM each time. In addition, the figures for the TGI in the experiment with OVCAR-3 ovarian and in the experiment with OVCAR-5 ovarian were 4.91 µM and > 100 µM, respectively.
`C#Cc1cccc(NC(=O)/C=C\C(=O)O)c1`: the TGI in the experiment on SK-MEL-2 melanoma, in the experiment with SF-268 CNS, with HL-60(TB) leukemia, in the experiment with NCI-H460 lung, in the experiment on EKVX NSCLC and in the experiment on MOLT-4 leukemia was > 100 µM each time. In addition, the TGI in the experiment on OVCAR-5 ovarian and in the experiment with UO-31 renal was > 100 µM in each case.
On to `O=[N+]([O-])/C=C/c1ccc2ccccc2c1`, for which the TGI in the experiment on SK-MEL-2 melanoma was > 61.6 µM; in the experiment on SF-268 CNS it was > 35.6 µM; in the experiment with HL-60(TB) leukemia, 7.8 µM; with NCI-H460 lung, > 23.5 µM; with EKVX NSCLC it was > 55 µM; in the experiment on OVCAR-3 ovarian it was > 100 µM. The TGI in the experiment with OVCAR-5 ovarian is > 30.1 µM; in the experiment on UO-31 renal, 35.1 µM.
